We go through ten compounds from ChEMBL document CHEMBL1201862, “PubChem BioAssay data set” (2004).

Each structure is given as a SMILES string.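 These data come from cells grown in 96-well plates and exposed to compound for 48 hours at five concentrations. GI50 = concentration required for 50% inhibition of growth.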 Calls of active or inactive are those of the source. No stated cut-off is given here; in the data, active = GI50 up to about 1.1 µM and inactive = higher. Some results are limits rather than exact numbers.

Some test systems named below: Malme-3M; SN12C; NCI-H226; OVCAR-8; RPMI-8226; SK-MEL-5; KM12; SW-620; SF-295; SR; SF-539; MCF7; CCRF-CEM; NCI-H522; TK-10; HOP-92; DU-145; U-251; M14; HOP-62.
Holding throughout (assay): growth of human tumour cells (NCI), 48 h

Turning to `COc1ccc(C2=NN(C(=N)S)C(c3ccccc3)C2)cc1` (centres undefined), the GI50 was 30.5 µM (inactive) in the assay with Malme-3M; 39.3 µM (inactive) in the assay with SN12C; 34.6 µM (inactive) in the assay with NCI-H226; 39.7 µM (inactive) in the assay with OVCAR-8; 23.6 µM (inactive) with RPMI-8226; 16.7 µM (inactive) with SK-MEL-5. Besides, the GI50 was 35.7 µM (inactive) with KM12; 52.2 µM (inactive) in the assay with SW-620; 30.3 µM (inactive) in the assay with SF-295; 23.2 µM (inactive) in the assay with SR; 61.5 µM (inactive) in the assay with SF-539; 22.5 µM (inactive) in the assay with MCF7. The GI50 in the assay with CCRF-CEM is 33.2 µM (inactive); with NCI-H522 it was 25.5 µM (inactive); with TK-10, 37.8 µM (inactive); in the assay with HOP-92, 30.5 µM (inactive); in the assay on DU-145 it was 53.6 µM (inactive); in the assay on U-251, 38.7 µM (inactive). Further, the figures for the GI50 in the assay on M14 and in the assay with HOP-62 were 41 µM (inactive) and 38.2 µM (inactive), respectively.
On to `Cc1ccc(NC(=S)N/N=C2\C(=O)Nc3ccccc32)cc1`, for which the GI50 was > 100 µM (inactive) with Malme-3M; > 100 µM (inactive) in the assay with SN12C; 92.3 µM (inactive) in the assay with NCI-H226; > 100 µM (inactive) with OVCAR-8; > 100 µM (inactive) in the assay with RPMI-8226; 59.7 µM (inactive) with SK-MEL-5. The GI50 was > 100 µM (inactive) in the assay on KM12; > 100 µM (inactive) with SW-620; 49.9 µM (inactive) in the assay with SF-295; 87.7 µM (inactive) in the assay with SR; > 100 µM (inactive) in the assay with SF-539; > 100 µM (inactive) in the assay with MCF7. For the same compound, the GI50 is 72.1 µM (inactive) in the assay with CCRF-CEM; > 100 µM (inactive) in the assay with NCI-H522; > 100 µM (inactive) with TK-10; > 100 µM (inactive) in the assay with HOP-92; 4.43 µM (inactive) in the assay on DU-145; > 100 µM (inactive) in the assay on U-251. Moreover, the GI50 with M14 is 94 µM (inactive); in the assay with HOP-62 it was > 100 µM (inactive).
For `CCc1nnc2sc(-c3ccc(-c4ccccc4[N+](=O)[O-])o3)nn12`, the GI50 in the assay with Malme-3M is > 100 µM (inactive); in the assay with SN12C, 53 µM (inactive); in the assay with NCI-H226, 14.4 µM (inactive); with OVCAR-8, 50.7 µM (inactive); with RPMI-8226, 20.7 µM (inactive); in the assay with SK-MEL-5, 27.7 µM (inactive). Further, the GI50 was 30.8 µM (inactive) in the assay on KM12; 34 µM (inactive) in the assay with SW-620; 32.6 µM (inactive) in the assay on SF-295; 20.1 µM (inactive) in the assay on SR; 29.7 µM (inactive) with SF-539; 19.7 µM (inactive) in the assay with MCF7. In addition, the GI50 is 26.9 µM (inactive) in the assay with CCRF-CEM; 37.4 µM (inactive) in the assay with NCI-H522; 75.7 µM (inactive) with TK-10; 84.7 µM (inactive) in the assay on HOP-92; 66.2 µM (inactive) in the assay with DU-145; 40.6 µM (inactive) in the assay with U-251. In addition, the GI50 in the assay with M14 was 37.6 µM (inactive); in the assay on HOP-62, 87.9 µM (inactive).
With `Fc1ccc(C(OCCN2CCC3CCC(C2)N3C/C=C/c2ccco2)c2ccc(F)cc2)cc1` (centres undefined), the GI50 was 9.57 µM (inactive) in the assay on Malme-3M; 11.4 µM (inactive) in the assay on SN12C; 13.2 µM (inactive) in the assay on NCI-H226; 5.83 µM (inactive) in the assay with OVCAR-8; 4.2 µM (inactive) in the assay on RPMI-8226; 4.22 µM (inactive) in the assay on SK-MEL-5. Besides, the GI50 in the assay with KM12 was 9.1 µM (inactive); with SW-620, 7.96 µM (inactive); with SF-295, 13 µM (inactive); in the assay with SR it was 2.47 µM (inactive); in the assay on SF-539 it was 14.1 µM (inactive); in the assay with MCF7, 10.2 µM (inactive). The GI50 in the assay with CCRF-CEM was 0.0459 µM (active); with NCI-H522, 7.23 µM (inactive); in the assay with TK-10, 6.93 µM (inactive); in the assay on HOP-92 it was 4.62 µM (inactive); in the assay with DU-145, 15.7 µM (inactive); with U-251 it was 8.59 µM (inactive). Moreover, the figures for the GI50 with M14 and in the assay with HOP-62 were 5.5 µM (inactive) and 16.2 µM (inactive), respectively.
Consider `O=C(C[C@@H]1NCCC[C@H]1O)Cn1cnc2cc(Br)c(Cl)cc2c1=O`, for which the GI50 in the assay with Malme-3M was 0.0318 µM (active); with SN12C, < 0.01 µM (active); in the assay on NCI-H226 it was < 0.0115 µM (active); with OVCAR-8, < 0.0117 µM (active); in the assay on RPMI-8226, 0.0243 µM (active); in the assay on SK-MEL-5, 0.0153 µM (active). In addition, the GI50 in the assay with KM12 is 0.0171 µM (active); with SW-620 it was 0.0259 µM (active); with SF-295, 0.024 µM (active); in the assay with SR it was 0.0146 µM (active); with SF-539, 0.023 µM (active); with MCF7, < 0.01 µM (active). Further, the GI50 in the assay with CCRF-CEM was 0.0192 µM (active); with NCI-H522 it was < 0.0147 µM (active); in the assay with TK-10, 0.0491 µM (active); in the assay with HOP-92, 0.0304 µM (active); in the assay on DU-145, 0.025 µM (active); with U-251, 0.0252 µM (active). Further, the GI50 with M14 is 0.0178 µM (active); with HOP-62, 0.0279 µM (active).
Turning to `CS(=O)(=O)Nc1ccc2c(c1)N(S(C)(=O)=O)CC2COS(C)(=O)=O` (centres undefined), the GI50 in the assay on Malme-3M is 39.9 µM (inactive); with SN12C, > 100 µM (inactive); with NCI-H226 it was > 100 µM (inactive); in the assay with OVCAR-8, 94.4 µM (inactive); in the assay with RPMI-8226, 25.8 µM (inactive); with SK-MEL-5 it was 18.9 µM (inactive). Also, the GI50 in the assay on KM12 was > 100 µM (inactive); in the assay with SW-620, 32.2 µM (inactive); with SF-295, 58.7 µM (inactive); with SR, 23.3 µM (inactive); in the assay with SF-539 it was 41.9 µM (inactive); in the assay on MCF7, > 10 µM (inactive). The GI50 in the assay on CCRF-CEM was 35.8 µM (inactive); in the assay on NCI-H522, 19.7 µM (inactive); with TK-10, 36.8 µM (inactive); with HOP-92, 33.2 µM (inactive); with DU-145 it was 58.9 µM (inactive); in the assay with U-251, 25.8 µM (inactive). The GI50 in the assay with HOP-62 was 31.1 µM (inactive).
For `C=C(c1ccccc1)C1ON(C)CCc2cc(OC)c(OC)cc21` (centres undefined), the GI50 with Malme-3M is 96.4 µM (inactive); with SN12C it was > 100 µM (inactive); in the assay with NCI-H226, > 100 µM (inactive); with OVCAR-8 it was > 100 µM (inactive); with RPMI-8226, > 100 µM (inactive); with SK-MEL-5, 23.3 µM (inactive). Also, the GI50 was > 100 µM (inactive) in the assay on KM12; > 100 µM (inactive) with SW-620; 58.9 µM (inactive) with SF-295; 88.7 µM (inactive) in the assay on SR; > 100 µM (inactive) in the assay on SF-539; 0.256 µM (active) in the assay with MCF7. For the same compound, the GI50 in the assay on CCRF-CEM is > 100 µM (inactive); in the assay with NCI-H522, 56.4 µM (inactive); in the assay with TK-10 it was > 100 µM (inactive); with HOP-92, 34.4 µM (inactive); in the assay on DU-145, > 100 µM (inactive); in the assay with U-251, > 100 µM (inactive). The GI50 in the assay on M14 and in the assay on HOP-62 was > 100 µM (inactive) throughout.
`c1ccc2c(c1)-c1ccccc1C2NC1=NCCO1`: the GI50 in the assay on Malme-3M is 13.1 µM (inactive); in the assay with SN12C, 33.7 µM (inactive); in the assay on NCI-H226 it was 23.8 µM (inactive); in the assay on OVCAR-8 it was 20.8 µM (inactive); in the assay on RPMI-8226, 28.4 µM (inactive); with SK-MEL-5 it was 15.7 µM (inactive). Also, the GI50 in the assay on KM12 was 14.2 µM (inactive); in the assay with SW-620, 54.2 µM (inactive); in the assay on SF-295 it was 31.4 µM (inactive); in the assay on SR, 30.3 µM (inactive); in the assay on SF-539, 21.7 µM (inactive); with MCF7 it was 22.5 µM (inactive). In addition, the GI50 was 32.6 µM (inactive) in the assay on CCRF-CEM; 25.6 µM (inactive) in the assay on NCI-H522; 28.1 µM (inactive) in the assay with TK-10; 13.9 µM (inactive) with HOP-92; 52.6 µM (inactive) in the assay with DU-145; 31.3 µM (inactive) in the assay on U-251. Moreover, the values for the GI50 in the assay on M14 and in the assay on HOP-62 were 17.2 µM (inactive) and 22.5 µM (inactive), respectively.
Turning to `Cc1ccnc2nc(-c3ccc(Cl)cc3)cc(O)c12`, the GI50 in the assay on Malme-3M was 6.81 µM (inactive); in the assay on SN12C it was 8.2 µM (inactive); with NCI-H226 it was 5.16 µM (inactive); in the assay with OVCAR-8, > 27 µM (inactive); in the assay on RPMI-8226 it was 2.94 µM (inactive); in the assay with SK-MEL-5, 3.13 µM (inactive). Further, the GI50 in the assay on KM12 was 3.16 µM (inactive); in the assay on SW-620 it was 3.35 µM (inactive); in the assay on SF-295 it was 4.38 µM (inactive); in the assay on SR, 1.41 µM (inactive); in the assay on SF-539, 5.74 µM (inactive); in the assay on MCF7, 2.94 µM (inactive). The GI50 with CCRF-CEM is 4.63 µM (inactive); in the assay with NCI-H522 it was 2.58 µM (inactive); in the assay on TK-10, > 60.5 µM (inactive); in the assay on HOP-92 it was 2.17 µM (inactive); in the assay with DU-145, 13.5 µM (inactive); in the assay with U-251, 4.07 µM (inactive). Moreover, the results for the GI50 with M14 and with HOP-62 were 8.63 µM (inactive) and 8.41 µM (inactive), respectively.
As to `COc1ccc2nc3ccccc3c(NCCCCN(CCCl)CCCl)c2c1`, the GI50 in the assay with Malme-3M is 0.112 µM (active); in the assay on SN12C, 0.0843 µM (active); with NCI-H226, 0.368 µM (active); in the assay on OVCAR-8, 0.0218 µM (active); with RPMI-8226, < 0.0476 µM (active); in the assay with SK-MEL-5, 0.292 µM (active). Besides, the GI50 with KM12 was 0.128 µM (active); with SW-620, 0.0188 µM (active); with SF-295 it was 0.0863 µM (active); with SR, 0.04 µM (active); in the assay on SF-539, 0.136 µM (active); with MCF7, 0.202 µM (active). The GI50 was 0.01 µM (active) in the assay on CCRF-CEM; 0.02 µM (active) in the assay with NCI-H522; 1.17 µM (inactive) with TK-10; 0.527 µM (active) in the assay on HOP-92; 0.933 µM (active) in the assay with DU-145; 0.0752 µM (active) with U-251. The GI50 in the assay on M14 is 0.22 µM (active); in the assay on HOP-62, 0.655 µM (active).
